Laboratory results as given in US6814960B1, “Hydroxystilbene compounds used as microbicidal active substances” (Ciba Specialty Chemicals Corporation, priority 1998, dated 2004).
Where two headings read alike, the source gives them in different places.

What was measured:
Assay type in all cases: cell-based
[1] = system: Aspergillus niger ATCC 6275; test: MIC value in microtitre plates (optical density); settings: microtitre plate, Sabouraud 2% glucose bouillon, 5 days at 28° C., optical density 620 nm, ≦20% growth; some data indicative values
Procedure: (§1) Determination of the Minimum Inhibiting Concentration (MIC Value) in Microtitre Plates
(§2) Casein/soybean flour peptone bouillon for the preparation of the precultures of the test bacteria and yeast.
(§3) Mycological slant agar for the preculture of moulds.
(§4) Examples of Test Organisms
(§5) The test substances are predissolved in dimethyl sulfoxide (DMSO) and tested in a serial dilution of 1:2.
(§6) Bacteria and yeast are cultured overnight in CASO bouillon, the mould on mycological slant agar and rinsed off with 10 ml of 0.85% sodium chloride solution (+0.1% TritonX-100).
(§7) All test organisms are adjusted to an organism count of 1.5×10^6 CFU/ml with 0.85% sodium chloride solution.
(§8) The test substances are prepipetted into microtitre plates in an amount of 8 μl per well.
(§9) Previously diluted organism substances are diluted 1:100 in CASO bouillon (bacteria and yeast) and Sabouraud 2% glucose bouillon (mould) and added to the test substances in an amount of 192 μl per well.
(§10) The test batches are incubated for 48 hours at 37° C. (bacteria and yeast) or for 5 days at 28° C. (mould).
(§11) After incubation, the growth is determined by reference to the turbidity of the test batches (optical density) at 620 nm in a microplate reader.
(§12) The minimum inhibiting concentration (MIC value) is the concentration of substance at which (compared with the growth control) an appreciable inhibition of the growth (≦20% growth) of the test organisms is ascertained.
(§13) One microtiter plate is used for each test organism and substance concentration. All substances tested in duplicate.

[2] = system: Staphylococcus hominis DSM 20328; test: MIC value in microtitre plates (optical density); settings: microtitre plate, CASO bouillon, 48 hours at 37° C., optical density 620 nm, ≦20% growth; some data indicative values
Procedure: as §1, §2, §3, §4, §5, §6, §7, §8, §9, §10, §11, §12, §13

[3] = system: Pseudomonas aeruginosa CIP A-22; test: MIC value in microtitre plates (optical density); settings: microtitre plate, CASO bouillon, 48 hours at 37° C., optical density 620 nm, ≦20% growth; some data indicative values
Procedure: as §1, §2, §3, §4, §5, §6, §7, §8, §9, §10, §11, §12, §13

[4] = system: Escherichia coli NCTC 8196; test: MIC value in microtitre plates (optical density); settings: microtitre plate, CASO bouillon, 48 hours at 37° C., optical density 620 nm, ≦20% growth; some data indicative values
Procedure: as §1, §2, §3, §4, §5, §6, §7, §8, §9, §10, §11, §12, §13

[5] = system: Candida albicans ATCC 10231; test: MIC value in microtitre plates (optical density); settings: microtitre plate, CASO bouillon, 48 hours at 37° C., optical density 620 nm, ≦20% growth; some data indicative values
Procedure: as §1, §2, §3, §4, §5, §6, §7, §8, §9, §10, §11, §12, §13

[6] = system: Candida albicans ATCC 10231; test: MIC in the agar diffusion test; settings: for MIC: Candida albicans, read-out: MIC C. albicans
Description: (§14) Determination of the Minimum Inhibiting Concentration (MIC) in the Agar Diffusion Test

[7] = system: Staphylococcus aureus ATCC 9144; test: MIC in the agar diffusion test; settings: for MIC: Staphylococcus aureus, read-out: MIC S. aureus
Description: as §14

[8] = system: Aspergillus niger ATCC 6275; test: MIC in the agar diffusion test; settings: for MIC: Aspergillus niger, ATCC6275, 72 h, read-out: MIC A. niger
Description: as §14

[9] = system: Escherichia coli NCTC 8196; test: MIC in the agar diffusion test; settings: for MIC: Escherichia coli, read-out: MIC E. coli
Description: as §14

[10] = system: Pseudomonas aeruginosa CIP A-22; test: MIC in the agar diffusion test; settings: Mueller-Hinton agar, 24 hours at 37° C., solution in EtOH
Description: as §14

[11] = system: Corynebacterium xerosis ATCC 373; test: MIC in the agar diffusion test; settings: Mueller-Hinton agar, 24 hours at 37° C.; (103) solution in EtOH
Description: as §14

[12] = Mueller-Hinton agar, 24 hours at 37° C., (101), (103) solution in EtOH, others in DMSO
[13] = Sabouraud 4% glucose agar, 3 days at 28° C., (101) solution in EtOH, others in DMSO

| Compound | MIC values A. niger [1] [ppm] | MIC values S. heminis [2] [ppm] | MIC values P. aeruginosa [3] [ppm] | MIC values E. coli [4] [ppm] | MIC values C. albicans [5] [ppm] | other results |
| --- | --- | --- | --- | --- | --- | --- |
| Cc1ccccc1/C=C/c1cccc(C)c1O [Comp. of formula 177] | 60 | 30 | >100 | 60 | 60 |  |
| COc1ccc(/C=C/c2ccc(Cl)cc2)cc1O [Comp. of formula 121] | >100 | >100 | >100 | >100 | >100 |  |
| CN(C)c1ccc(/C=C/c2ccccc2)cc1 [Compound of formula (104)] |  |  |  |  |  | MIC C. albicans [6, 12]: 600 ppm; MIC S. aureus [7, 12]: 300 ppm |
| Oc1cccc(/C=C/c2ccccc2)c1 [Compound of formula (102), 3-hydroxystilbene] |  |  |  |  |  | MIC [8]: 10 µg/mL; MIC ([9]; NCTC8196, 24 h): 100 µg/mL; MIC ([6]; ATCC10231, 24 h): 100 µg/mL; MIC ([7]; ATCC9144, 24 h): 100 µg/mL |
| COc1ccc(/C=C/c2ccc(C)cc2)cc1O [Comp. of formula 182] | >100 | >100 | >100 | >100 | >100 |  |
| COc1ccc(/C=C/c2cccc(C)c2O)cc1 [Comp. of formula 140] | 100 | >100 | >100 | >100 | >100 |  |
| CCOc1cc(/C=C/c2ccccc2C)ccc1O [Comp. of formula 171] | >100 | >100 | >100 | >100 | >100 |  |
| Oc1ccc(/C=C/c2ccc(-c3ccccc3)cc2)cc1 [Comp. of formula 143] | >100 | >100 | >100 | >100 | >100 |  |
| Cc1cccc(/C=C/c2cccc3ccccc23)c1O [Comp. of formula 165] | 100 | 100 | >100 | >100 | >100 |  |
| COc1cc(/C=C/c2ccccc2)ccc1O [Comp. of formula 111] | 100 | >100 | >100 | >100 | >100 |  |
| Oc1cccc(/C=C/c2ccc(-c3ccccc3)cc2)c1 [Comp. of formula 145] | >100 | >100 | >100 | >100 | >100 |  |
| Cc1cccc(/C=C/c2ccccc2)c1O [Comp. of formula 116] | 60 | 60 | 100 | 60 | 60 |  |
| COc1cc(/C=C/c2ccccc2C)cc(O)c1OC [Comp. of formula 175] | 100 | 60 | 100 | 60 | 60 |  |
| COc1ccc(/C=C/c2ccccc2O)cc1 [Comp. of formula 137] | >100 | >100 | >100 | 100 | >100 |  |
| COc1cc(/C=C/c2ccc(Cl)cc2)cc(O)c1OC [Comp. of formula 126] | 100 | >100 | >100 | >100 | 100 |  |
| Oc1ccc(/C=C/c2cc(O)cc(O)c2)cc1 [Compound of formula (103)] |  |  |  |  |  | MIC P. aeruginosa [10]: 600 ppm; MIC E. coli ([9]; Mueller-Hinton agar, 24 hours at 37° C., (101), (103) solution in EtOH, (102) in DMSO): 600 ppm; MIC C. albicans [6, 12]: 600 ppm; MIC S. aureus [7, 12]: 600 ppm; MIC C. xerosis [11]: 100 ppm |
| Cc1cccc(/C=C/c2ccc(-c3ccccc3)cc2)c1O [Comp. of formula 153] | >100 | >100 | >100 | >100 | >100 |  |
| COc1ccc(/C=C/c2ccc(-c3ccccc3)cc2)cc1O [Comp. of formula 146] | >100 | >100 | >100 | >100 | >100 |  |
| COc1ccc(/C=C/c2cccc3ccccc23)cc1O [Comp. of formula 158] | >100 | >100 | >100 | >100 | >100 |  |
| COc1ccc(/C=C/c2cc(O)c(OC)c(OC)c2)cc1 [Comp. of formula 138] | >100 | >100 | >100 | >100 | >100 |  |
| Oc1cc(O)cc(C=Cc2ccccc2)c1 [Compound of formula (101), 3,5-dihydroxystilbene] |  |  |  |  |  | MIC [8, 13]: 100 µg/mL; MIC ([10]; Pseudomonas aeruginosa, CIPA22, read-out: MIC P. aeruginosa): 100 µg/mL; MIC ([9]; NCTC8196, Mueller-Hinton agar, 24 hours at 37° C., (101), (103) solution in EtOH, (102) in DMSO): 100 µg/mL; MIC ([6]; ATCC10231, Mueller-Hinton agar, 24 hours at 37° C., (101), (103) solution in EtOH, others in DMSO): 100 µg/mL; MIC ([7]; ATCC9144, Mueller-Hinton agar, 24 hours at 37° C., (101), (103) solution in EtOH, others in DMSO): 100 µg/mL |
| COc1ccc(/C=C/c2ccc(O)c(OC)c2)cc1 [Comp. of formula 135] | >100 | >100 | >100 | >100 | >100 |  |
| Cc1ccc(/C=C/c2cccc(O)c2)cc1 [Comp. of formula 181] | 30 | 15 | 100 | 15 | 15 |  |
| Oc1ccc(/C=C/c2ccc(Cl)cc2)cc1 [Compound of formula (106)] |  |  |  |  |  | MIC A. niger [8, 13]: 600 ppm; MIC S. aureus [7, 12]: 10 ppm |
| Cc1cccc(/C=C/c2ccc(Cl)cc2)c1O [Comp. of formula 128] | 100 | >100 | >100 | >100 | >100 |  |
| COc1cc(/C=C/c2ccccc2)cc(O)c1OC [Comp. of formula 114] | 100 | >100 | >100 | 100 | >100 |  |
| Cc1ccccc1/C=C/c1cccc(O)c1 [Comp. of formula 169] | 30 | 30 | 100 | 60 | 30 |  |
